ChEMBL document CHEMBL1201862, “PubChem BioAssay data set” (2004)
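Briefly, cells in 96-well plates were exposed to five compound concentrations for 48 h, and endpoints were estimated by linear interpolation. GI50: concentration for 50% inhibition of growth.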 Activity calls are given as the source filed them. Cut-off read from the data, not from the text of the source: active = GI50 up to about 1.1 µM and inactive = higher.

Assays:
Test in all cases: DTP human tumour cell line panel, 48 h
U-251 = tested on: U-251
A498 = tested on: A498
SF-268 = tested on: SF-268
MOLT-4 = tested on: MOLT-4
HCT-116 = tested on: HCT-116
SN12C = tested on: SN12C
HCC 2998 = tested on: HCC 2998
MDA-N = tested on: MDA-N
UO-31 = tested on: UO-31
EKVX = tested on: EKVX
NCI-H23 = tested on: NCI-H23
HCT-15 = tested on: HCT-15
RXF 393 = tested on: RXF 393
DU-145 = tested on: DU-145
NCI-H460 = tested on: NCI-H460
NCI-H226 = tested on: NCI-H226
OVCAR-4 = tested on: OVCAR-4
MCF7 = tested on: MCF7
CAKI-1 = tested on: CAKI-1
Malme-3M = tested on: Malme-3M

Row | Structure (SMILES) | GI50 (U-251) | GI50 (A498) | GI50 (SF-268) | GI50 (MOLT-4) | GI50 (HCT-116) | GI50 (SN12C) | GI50 (HCC 2998) | GI50 (MDA-N) | GI50 (UO-31) | GI50 (EKVX) | GI50 (NCI-H23) | GI50 (HCT-15) | GI50 (RXF 393) | GI50 (DU-145) | GI50 (NCI-H460) | GI50 (NCI-H226) | GI50 (OVCAR-4) | GI50 (MCF7) | GI50 (CAKI-1) | GI50 (Malme-3M)
1 | CCOC(=O)C(NC(=O)Nc1ccc(Cl)c(Cl)c1)C(F)(F)F (centres undefined) | > 100 µM (inactive) | > 100 µM (inactive) | > 100 µM (inactive) | > 100 µM (inactive) | > 100 µM (inactive) | > 100 µM (inactive) | > 100 µM (inactive) | > 100 µM (inactive) | 49.8 µM (inactive) | 77.1 µM (inactive) | > 100 µM (inactive) | 40.9 µM | > 100 µM (inactive) | – | – | – | – | – | – | –
2 | CCOCCOCCOCc1nc(C#N)c(N)o1 | > 100 µM (inactive) | > 100 µM (inactive) | > 100 µM (inactive) | > 100 µM (inactive) | > 100 µM (inactive) | > 100 µM (inactive) | > 100 µM (inactive) | – | > 100 µM (inactive) | > 100 µM (inactive) | > 100 µM (inactive) | > 100 µM | > 100 µM (inactive) | > 100 µM (inactive) | > 100 µM (inactive) | > 100 µM (inactive) | > 100 µM (inactive) | > 100 µM (inactive) | > 100 µM (inactive) | –
3 | Nc1ccc2ccc(-c3ccc[nH]3)nc2n1 | > 100 µM (inactive) | > 100 µM (inactive) | > 100 µM (inactive) | – | > 100 µM (inactive) | > 100 µM (inactive) | > 100 µM (inactive) | > 100 µM (inactive) | > 100 µM (inactive) | > 100 µM (inactive) | > 100 µM (inactive) | > 100 µM | > 100 µM (inactive) | – | > 100 µM (inactive) | > 100 µM (inactive) | > 100 µM (inactive) | > 100 µM (inactive) | > 100 µM (inactive) | > 100 µM (inactive)
4 | CCOC(=O)c1sc2c(c1OC(=O)c1ccccc1)c(=O)n(-c1ccccc1)c(=S)n2-c1ccccc1 | 20.3 µM (inactive) | 15.5 µM (inactive) | 38.5 µM (inactive) | 42.8 µM (inactive) | 16.2 µM (inactive) | > 100 µM (inactive) | 25.1 µM (inactive) | – | – | 63.8 µM (inactive) | 21 µM (inactive) | 45.5 µM | 43.5 µM (inactive) | 34.1 µM (inactive) | 19.3 µM (inactive) | > 100 µM (inactive) | 12.4 µM (inactive) | 29.4 µM (inactive) | 97.9 µM (inactive) | 21.7 µM (inactive)
5 | CC1=Nc2ccccc2S(=O)(=O)N1 | > 100 µM (inactive) | > 100 µM (inactive) | > 100 µM (inactive) | > 100 µM (inactive) | > 100 µM (inactive) | > 100 µM (inactive) | > 100 µM (inactive) | – | > 100 µM (inactive) | > 100 µM (inactive) | > 100 µM (inactive) | > 100 µM | > 100 µM (inactive) | – | > 100 µM (inactive) | > 100 µM (inactive) | > 100 µM (inactive) | – | > 100 µM (inactive) | > 100 µM (inactive)
6 | O=C(CCN1CCN(c2ccccc2)CC1)N1CCc2c([nH]c3ccccc23)C1c1cccnc1 (centres undefined) | 16.4 µM (inactive) | 19.1 µM (inactive) | – | 12 µM (inactive) | 14.9 µM (inactive) | 15.2 µM (inactive) | 21.7 µM (inactive) | – | 11.5 µM (inactive) | 16.9 µM (inactive) | 21 µM (inactive) | 15.2 µM | 24.6 µM (inactive) | – | 16.6 µM (inactive) | 25.9 µM (inactive) | 13.6 µM (inactive) | – | 18.1 µM (inactive) | 19.1 µM (inactive)
7 | Cc1ccc(S(=O)(=O)Nn2c(S)c(C#N)c(-c3ccc([N+](=O)[O-])cc3)c(C#N)c2=O)cc1 | 29 µM (inactive) | 89.1 µM (inactive) | 30.7 µM (inactive) | 17.3 µM (inactive) | 16.9 µM (inactive) | 19.1 µM (inactive) | 31.6 µM (inactive) | 26.1 µM (inactive) | – | 32 µM (inactive) | – | 17.3 µM | 39 µM (inactive) | – | 31 µM (inactive) | 40.6 µM (inactive) | 24.7 µM (inactive) | 25.6 µM (inactive) | > 100 µM (inactive) | 61.5 µM (inactive)
8 | Cn1cnc([N+](=O)[O-])c1Sc1nc2cc(Cl)c(F)cc2[nH]1 | 8.41 µM (inactive) | 18.6 µM (inactive) | 10.1 µM (inactive) | 2.08 µM (inactive) | 6.9 µM (inactive) | 14.1 µM (inactive) | 7.6 µM (inactive) | – | 11.3 µM (inactive) | 1.38 µM (inactive) | 11.5 µM (inactive) | 4.37 µM | 3.69 µM (inactive) | – | 10.3 µM (inactive) | 9.55 µM (inactive) | 4.34 µM (inactive) | – | 2.58 µM (inactive) | 13.7 µM (inactive)
